This passage reports DC50 results from patent US20250051338A1, “TYK2 DEGRADERS AND USES THEREOF” (Kymera Therapeutics, Inc., priority 2021, published 2025).

Some results are limits rather than exact numbers.

T1 sequence (P29597 whole entry): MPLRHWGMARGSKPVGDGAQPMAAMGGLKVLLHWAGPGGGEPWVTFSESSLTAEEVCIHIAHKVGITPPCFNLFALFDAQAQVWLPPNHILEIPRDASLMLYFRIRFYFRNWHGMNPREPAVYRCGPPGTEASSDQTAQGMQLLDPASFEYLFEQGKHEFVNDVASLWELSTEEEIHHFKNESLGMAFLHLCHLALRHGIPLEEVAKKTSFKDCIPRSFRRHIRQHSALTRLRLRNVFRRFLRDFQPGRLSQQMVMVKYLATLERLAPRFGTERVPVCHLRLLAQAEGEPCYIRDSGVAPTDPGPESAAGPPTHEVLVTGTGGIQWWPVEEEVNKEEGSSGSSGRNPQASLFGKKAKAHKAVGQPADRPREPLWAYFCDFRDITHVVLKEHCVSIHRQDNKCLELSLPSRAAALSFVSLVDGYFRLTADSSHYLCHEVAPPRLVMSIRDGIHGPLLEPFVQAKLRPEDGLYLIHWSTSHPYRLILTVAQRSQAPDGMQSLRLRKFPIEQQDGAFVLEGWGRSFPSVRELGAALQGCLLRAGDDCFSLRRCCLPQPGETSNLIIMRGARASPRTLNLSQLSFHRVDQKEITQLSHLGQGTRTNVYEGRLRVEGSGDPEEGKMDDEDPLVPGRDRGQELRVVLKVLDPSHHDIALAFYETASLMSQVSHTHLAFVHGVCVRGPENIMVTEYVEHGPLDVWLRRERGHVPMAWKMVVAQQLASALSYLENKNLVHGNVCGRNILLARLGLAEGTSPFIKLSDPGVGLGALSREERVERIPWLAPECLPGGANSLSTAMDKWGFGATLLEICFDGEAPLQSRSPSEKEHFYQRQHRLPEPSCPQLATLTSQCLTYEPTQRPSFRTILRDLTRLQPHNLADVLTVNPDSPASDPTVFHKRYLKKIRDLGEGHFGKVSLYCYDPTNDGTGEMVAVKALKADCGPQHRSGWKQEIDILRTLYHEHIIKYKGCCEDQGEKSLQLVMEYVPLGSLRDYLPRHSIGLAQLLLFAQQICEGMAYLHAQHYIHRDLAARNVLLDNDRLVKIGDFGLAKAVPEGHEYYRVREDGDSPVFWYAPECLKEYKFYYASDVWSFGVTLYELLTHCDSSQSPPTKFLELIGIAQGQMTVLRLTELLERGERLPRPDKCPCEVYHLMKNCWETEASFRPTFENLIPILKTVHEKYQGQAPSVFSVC

One assay has as its target T1, TYK2 (Homo sapiens, UniProt P29597). Kind of assay: TYK2 degradation MSD assay in human PBMC cells. The class given is cell-based. Further details: endogenous in cells; host or cells: human PBMC. To be noted: 4 to 24 hours incubation, read-out: TYK2 MSD DC50 rating in human PBMC. In short, it runs like this: (§1)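 TYK2 levels in lysed cells, detected via antibody capture and SULFO-TAG electrochemiluminescence, were compared across a nine-point threefold compound dilution (highest 1 to 10 μM) after 4–24 h culture at 37° C under 5% CO2. Four-parameter nonlinear regression of the dose response yielded DC50.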
For the molecule `CNc1cc(Nc2cccc(CN3CCN(c4ccc5c(c4)n(C)c(=O)n5C4CCC(=O)NC4=O)CC3)c2)nn2c(C(=O)NC3CC3)cnc12` (stereo not drawn) [Example K591], the DC50 is over 100 nM.

For `CNc1cc(Nc2cccc(CN3CC4(CCN(c5cccc6c5n(C)c(=O)n6C5CCC(=O)NC5=O)CC4)C3)c2)nn2c(C(=O)NC3CC3)cnc12` (stereo not drawn) [Example K592], the half-maximal degradation concentration (DC50) was over 100 nM.

Turning to `CNc1cc(Nc2cccc(CN(C)C3CCN(c4ccc5c(c4)n(C)c(=O)n5C4CCC(=O)NC4=O)CC3)c2)nn2c(C(=O)NC3CC3)cnc12` (stereo not drawn) [Example K593], the DC50 was over 100 nM.

For the molecule `CNc1cc(Nc2cccc(CN3CCN(c4cccc5c4n(C)c(=O)n5C4CCC(=O)NC4=O)CC3)c2)nn2c(C(=O)NC3CC3)cnc12` (stereo not drawn) [Example K594], the DC50 is over 100 nM.

For `CNc1cc(Nc2cccc(CN3CCC(OCC#Cc4cccc5c4n(C)c(=O)n5C4CCC(=O)NC4=O)CC3)c2)nn2c(C(=O)NC3CC3)cnc12` (stereo not drawn) [Example K595], the 50% degradation concentration (DC50) was over 100 nM.

On to `CNc1cc(Nc2cccc(CN3CCC(OC4CC(c5ccc6c(c5)n(C)c(=O)n6C5CCC(=O)NC5=O)C4)CC3)c2)nn2c(C(=O)NC3CC3)cnc12` (stereo not drawn) [Example K596], for which the DC50 was over 100 nM.

For the molecule `CNc1cc(Nc2cccc(CN(C)C3CCN(c4cccc5c4n(C)c(=O)n5C4CCC(=O)NC4=O)CC3)c2)nn2c(C(=O)NC3CC3)cnc12` (stereo not drawn) [Example K597], the DC50 is over 100 nM.

In the case of `CNC(=O)c1cnc(Nc2ccc(C(=O)NCCCCCCCCc3cc(N4CCCC(C(=O)Nc5ccc(=O)n(CC(=O)OC)c5)C4)ccn3)cn2)cc1Nc1cccc(-c2ncc(F)cn2)c1OC` (stereo not drawn) [Example K598], the DC50 was over 100 nM.

For the molecule `CNc1cc(Nc2cccn(-c3ccc(C(=O)NCCCCCCCCc4cncc(N5CCC[C@H](C(=O)Nc6ccc(=O)n(CC(=O)OC)c6)C5)c4)cn3)c2=O)nn2c(C(=O)N[C@@H]3C[C@@H]3F)cnc12` [Example K599], the DC50 was over 100 nM.

`CNc1cc(Nc2cccc(CN3CCC4(CC3)CCN(c3ccc5c(c3)[nH]c(=O)n5C3CCC(=O)NC3=O)C4)c2)nn2c(C(=O)NC3CC3)cnc12` (stereo not drawn) [Example K601]: the DC50 was over 100 nM.

As to `CNc1cc(Nc2cccc(CN3CCN(Cc4ccc5c(c4)n(C)c(=O)n5C4CCC(=O)NC4=O)CC3)c2)nn2c(C(=O)NC3CC3)cnc12` (stereo not drawn) [Example K602], the DC50 was over 100 nM.

In the case of `CNc1cc(Nc2cccc(CN3CC(N4CCN(c5ccc6c(c5)n(C)c(=O)n6C5CCC(=O)NC5=O)CC4)C3)c2)nn2c(C(=O)NC3CC3)cnc12` (stereo not drawn) [Example K603], the DC50 was over 100 nM.

As for `CNc1cc(Nc2cccc(CN3CC4(C3)CN(c3ncc(C#Cc5ccc6c(c5)n(C)c(=O)n6C5CCC(=O)NC5=O)cn3)C4)c2)nn2c(C(=O)NC3CC3)cnc12` (stereo not drawn) [Example K604], the DC50 was over 100 nM.

With `CNc1cc(Nc2cccc(CN(C)Cc3ccc(-c4ccc5c(c4)n(C)c(=O)n5C4CCC(=O)NC4=O)cn3)c2)nn2c(C(=O)NC3CC3)cnc12` (stereo not drawn) [Example K605], the DC50 was over 100 nM.

Take `CNc1cc(Nc2cccc(CN3CCC(CN(C)c4ccc5c(c4)n(C)c(=O)n5C4CCC(=O)NC4=O)CC3)c2)nn2c(C(=O)NC3CC3)cnc12` (stereo not drawn) [Example K606]: the DC50 is over 100 nM.

In the case of `CNc1cc(Nc2cccc(CN3CC(C)(Cc4ccc5c(c4)n(C)c(=O)n5C4CCC(=O)NC4=O)C3)c2)nn2c(C(=O)NC3CC3)cnc12` (stereo not drawn) [Example K607], the DC50 was over 100 nM.

Another assay has as its target T1, TYK2. Kind of assay: TYK2 degradation MSD assay in OCI-LY10 cells. In kind it is cell-based. Further details: endogenous in cells; host or cells: EBV-B cells. The note with it: 4 to 24 hours incubation, read-out: TYK2 MSD DC50 rating in OCI-LY10. In short, it runs like this: as §1
For the molecule `CNc1cc(Nc2cccc(CN3CCN(c4ccc5c(c4)n(C)c(=O)n5C4CCC(=O)NC4=O)CC3)c2)nn2c(C(=O)NC3CC3)cnc12` (stereo not drawn) [Example K591], the half-maximal degradation concentration (DC50) is over 100 nM.

For the molecule `CNc1cc(Nc2cccc(CN3CC4(CCN(c5cccc6c5n(C)c(=O)n6C5CCC(=O)NC5=O)CC4)C3)c2)nn2c(C(=O)NC3CC3)cnc12` (stereo not drawn) [Example K592], the half-maximal degradation concentration (DC50) is 1 to 10 nM.

On to `CNc1cc(Nc2cccc(CN(C)C3CCN(c4ccc5c(c4)n(C)c(=O)n5C4CCC(=O)NC4=O)CC3)c2)nn2c(C(=O)NC3CC3)cnc12` (stereo not drawn) [Example K593], for which the DC50 was over 100 nM.

For the molecule `CNc1cc(Nc2cccc(CN3CCN(c4cccc5c4n(C)c(=O)n5C4CCC(=O)NC4=O)CC3)c2)nn2c(C(=O)NC3CC3)cnc12` (stereo not drawn) [Example K594], the DC50 is over 100 nM.

Consider `CNc1cc(Nc2cccc(CN3CCC(OCC#Cc4cccc5c4n(C)c(=O)n5C4CCC(=O)NC4=O)CC3)c2)nn2c(C(=O)NC3CC3)cnc12` (stereo not drawn) [Example K595], for which the DC50 was 1 to 10 nM.

For the molecule `CNc1cc(Nc2cccc(CN3CCC(OC4CC(c5ccc6c(c5)n(C)c(=O)n6C5CCC(=O)NC5=O)C4)CC3)c2)nn2c(C(=O)NC3CC3)cnc12` (stereo not drawn) [Example K596], the 50% degradation concentration (DC50) is under 1 nM.

Regarding `CNc1cc(Nc2cccc(CN(C)C3CCN(c4cccc5c4n(C)c(=O)n5C4CCC(=O)NC4=O)CC3)c2)nn2c(C(=O)NC3CC3)cnc12` (stereo not drawn) [Example K597], the half-maximal degradation concentration (DC50) was over 100 nM.

`CNC(=O)c1cnc(Nc2ccc(C(=O)NCCCCCCCCc3cc(N4CCCC(C(=O)Nc5ccc(=O)n(CC(=O)OC)c5)C4)ccn3)cn2)cc1Nc1cccc(-c2ncc(F)cn2)c1OC` (stereo not drawn) [Example K598]: the 50% degradation concentration (DC50) is over 100 nM.

For `CNc1cc(Nc2cccn(-c3ccc(C(=O)NCCCCCCCCc4cncc(N5CCC[C@H](C(=O)Nc6ccc(=O)n(CC(=O)OC)c6)C5)c4)cn3)c2=O)nn2c(C(=O)N[C@@H]3C[C@@H]3F)cnc12` [Example K599], the DC50 was over 100 nM.

On to `CNc1cc(Nc2cccc(CN3CCC4(CC3)CCN(c3ccc5c(c3)[nH]c(=O)n5C3CCC(=O)NC3=O)C4)c2)nn2c(C(=O)NC3CC3)cnc12` (stereo not drawn) [Example K601], for which the DC50 was over 100 nM.

With `CNc1cc(Nc2cccc(CN3CCN(Cc4ccc5c(c4)n(C)c(=O)n5C4CCC(=O)NC4=O)CC3)c2)nn2c(C(=O)NC3CC3)cnc12` (stereo not drawn) [Example K602], the DC50 is over 100 nM.

Take `CNc1cc(Nc2cccc(CN3CC(N4CCN(c5ccc6c(c5)n(C)c(=O)n6C5CCC(=O)NC5=O)CC4)C3)c2)nn2c(C(=O)NC3CC3)cnc12` (stereo not drawn) [Example K603]: the DC50 fell in the range of 1 to 10 nM.

Turning to `CNc1cc(Nc2cccc(CN3CC4(C3)CN(c3ncc(C#Cc5ccc6c(c5)n(C)c(=O)n6C5CCC(=O)NC5=O)cn3)C4)c2)nn2c(C(=O)NC3CC3)cnc12` (stereo not drawn) [Example K604], the DC50 is under 1 nM.

With `CNc1cc(Nc2cccc(CN(C)Cc3ccc(-c4ccc5c(c4)n(C)c(=O)n5C4CCC(=O)NC4=O)cn3)c2)nn2c(C(=O)NC3CC3)cnc12` (stereo not drawn) [Example K605], the 50% degradation concentration (DC50) was over 100 nM.

Take `CNc1cc(Nc2cccc(CN3CCC(CN(C)c4ccc5c(c4)n(C)c(=O)n5C4CCC(=O)NC4=O)CC3)c2)nn2c(C(=O)NC3CC3)cnc12` (stereo not drawn) [Example K606]: the DC50 is over 100 nM.

Turning to `CNc1cc(Nc2cccc(CN3CC(C)(Cc4ccc5c(c4)n(C)c(=O)n5C4CCC(=O)NC4=O)C3)c2)nn2c(C(=O)NC3CC3)cnc12` (stereo not drawn) [Example K607], the DC50 was over 100 nM.

A further assay addresses T1, TYK2. The assay can be described thus: TYK2 degradation MSD assay in EBV-B cells. The class given is cell-based. The note with it: 4 to 24 hours incubation, read-out: TYK2 MSD DC50 rating in EBV-B. Further details: endogenous in cells; host or cells: EBV-B cells. In short, it runs like this:
as §1
Take `CNc1cc(Nc2cccc(CN3CCN(c4ccc5c(c4)n(C)c(=O)n5C4CCC(=O)NC4=O)CC3)c2)nn2c(C(=O)NC3CC3)cnc12` (stereo not drawn) [Example K591]: the DC50 is over 100 nM.

Turning to `CNc1cc(Nc2cccc(CN3CC4(CCN(c5cccc6c5n(C)c(=O)n6C5CCC(=O)NC5=O)CC4)C3)c2)nn2c(C(=O)NC3CC3)cnc12` (stereo not drawn) [Example K592], the DC50 is over 100 nM.

With `CNc1cc(Nc2cccc(CN(C)C3CCN(c4ccc5c(c4)n(C)c(=O)n5C4CCC(=O)NC4=O)CC3)c2)nn2c(C(=O)NC3CC3)cnc12` (stereo not drawn) [Example K593], the DC50 was over 100 nM.

`CNc1cc(Nc2cccc(CN3CCN(c4cccc5c4n(C)c(=O)n5C4CCC(=O)NC4=O)CC3)c2)nn2c(C(=O)NC3CC3)cnc12` (stereo not drawn) [Example K594]: the 50% degradation concentration (DC50) is over 100 nM.

As to `CNc1cc(Nc2cccc(CN3CCC(OCC#Cc4cccc5c4n(C)c(=O)n5C4CCC(=O)NC4=O)CC3)c2)nn2c(C(=O)NC3CC3)cnc12` (stereo not drawn) [Example K595], the DC50 is over 100 nM.

Take `CNc1cc(Nc2cccc(CN3CCC(OC4CC(c5ccc6c(c5)n(C)c(=O)n6C5CCC(=O)NC5=O)C4)CC3)c2)nn2c(C(=O)NC3CC3)cnc12` (stereo not drawn) [Example K596]: the 50% degradation concentration (DC50) is over 100 nM.

Take `CNc1cc(Nc2cccc(CN(C)C3CCN(c4cccc5c4n(C)c(=O)n5C4CCC(=O)NC4=O)CC3)c2)nn2c(C(=O)NC3CC3)cnc12` (stereo not drawn) [Example K597]: the DC50 is over 100 nM.

`CNC(=O)c1cnc(Nc2ccc(C(=O)NCCCCCCCCc3cc(N4CCCC(C(=O)Nc5ccc(=O)n(CC(=O)OC)c5)C4)ccn3)cn2)cc1Nc1cccc(-c2ncc(F)cn2)c1OC` (stereo not drawn) [Example K598]: the DC50 was over 100 nM.

Turning to `CNc1cc(Nc2cccn(-c3ccc(C(=O)NCCCCCCCCc4cncc(N5CCC[C@H](C(=O)Nc6ccc(=O)n(CC(=O)OC)c6)C5)c4)cn3)c2=O)nn2c(C(=O)N[C@@H]3C[C@@H]3F)cnc12` [Example K599], the 50% degradation concentration (DC50) is over 100 nM.

As to `CNc1cc(Nc2cccc(CN3CCC4(CC3)CCN(c3ccc5c(c3)[nH]c(=O)n5C3CCC(=O)NC3=O)C4)c2)nn2c(C(=O)NC3CC3)cnc12` (stereo not drawn) [Example K601], the DC50 is over 100 nM.

Regarding `CNc1cc(Nc2cccc(CN3CCN(Cc4ccc5c(c4)n(C)c(=O)n5C4CCC(=O)NC4=O)CC3)c2)nn2c(C(=O)NC3CC3)cnc12` (stereo not drawn) [Example K602], the half-maximal degradation concentration (DC50) is over 100 nM.

With `CNc1cc(Nc2cccc(CN3CC(N4CCN(c5ccc6c(c5)n(C)c(=O)n6C5CCC(=O)NC5=O)CC4)C3)c2)nn2c(C(=O)NC3CC3)cnc12` (stereo not drawn) [Example K603], the DC50 is over 100 nM.

For the molecule `CNc1cc(Nc2cccc(CN3CC4(C3)CN(c3ncc(C#Cc5ccc6c(c5)n(C)c(=O)n6C5CCC(=O)NC5=O)cn3)C4)c2)nn2c(C(=O)NC3CC3)cnc12` (stereo not drawn) [Example K604], the half-maximal degradation concentration (DC50) was over 100 nM.

For the molecule `CNc1cc(Nc2cccc(CN(C)Cc3ccc(-c4ccc5c(c4)n(C)c(=O)n5C4CCC(=O)NC4=O)cn3)c2)nn2c(C(=O)NC3CC3)cnc12` (stereo not drawn) [Example K605], the half-maximal degradation concentration (DC50) was over 100 nM.

Take `CNc1cc(Nc2cccc(CN3CCC(CN(C)c4ccc5c(c4)n(C)c(=O)n5C4CCC(=O)NC4=O)CC3)c2)nn2c(C(=O)NC3CC3)cnc12` (stereo not drawn) [Example K606]: the DC50 was over 100 nM.

On to `CNc1cc(Nc2cccc(CN3CC(C)(Cc4ccc5c(c4)n(C)c(=O)n5C4CCC(=O)NC4=O)C3)c2)nn2c(C(=O)NC3CC3)cnc12` (stereo not drawn) [Example K607], for which the 50% degradation concentration (DC50) is over 100 nM.

In general, DC50 refers to the midpoint of the concentration-degradation curve.
